Assay results published in patent publication US20260022142A1, “MACROCYCLIC IMMUNOMODULATORS” (Bristol-Myers Squibb Company, priority 2022, published 2026).
Bridge positions count the residues as written; N and C are the ends. Square brackets hold non-standard residues; d marks the D form. Peptide text beside a SMILES is read from it. * marks the point of attachment. Bip = N[C@@H](Cc1ccc(-c2ccccc2)cc1)C(=O)O; Phe(3-Me) = Cc1cccc(C[C@H](N)C(=O)O)c1; 3Pal = N[C@@H](Cc1cccnc1)C(=O)O; 4Pal = N[C@@H](Cc1ccncc1)C(=O)O; Cha = N[C@@H](CC1CCCCC1)C(=O)O; Carboxymethyl = O=C(O)C*; Orn = NCCC[C@H](N)C(=O)O; Aun = NCCCCCCCCCCC(=O)O; Dab = NCC[C@H](N)C(=O)O; Dap = NC[C@H](N)C(=O)O

Target: T1, PD-1/PD-L1 interaction (PE-labeled human PD-L1-Ig binding to Jurkat cell line over-expressing human PD-1) (Homo sapiens, UniProt Q15116)
T1 construct: expressed in transfected cells; host or cells: Jurkat
T1 sequence (Q15116 25-288): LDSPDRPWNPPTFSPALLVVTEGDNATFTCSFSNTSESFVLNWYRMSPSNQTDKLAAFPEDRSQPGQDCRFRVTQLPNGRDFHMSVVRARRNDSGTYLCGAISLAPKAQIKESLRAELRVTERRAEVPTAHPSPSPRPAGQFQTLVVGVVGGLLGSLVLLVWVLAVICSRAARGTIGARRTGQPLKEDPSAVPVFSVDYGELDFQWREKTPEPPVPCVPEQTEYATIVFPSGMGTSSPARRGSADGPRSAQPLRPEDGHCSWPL
Test: Jurkat-PD-1 Cell Binding High-Content Screening Assay (CBA)
Format: cell-based
Details: Jurkat cell line over-expressing human PD-1; PE-labeled PD-L1-Ig 20 nM final; read-out: Jurkat hPD1-PDL1 IC50
Summary of the method: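 Binding of fluorescent PD-L1-Ig (phycoerythrin on Ig tag, 20 nM final, 1 h) measured by high-content imaging of fixed, Hoechst-counterstained Jurkat-hPD-1 cells. Compound added 2 h at 37° C beforehand, in DMEM with 10% fetal calf serum.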

| SMILES | IC50 |
| --- | --- |
| Cc1cccc(C[C@@H]2NC(=O)[C@H](CC(=O)O)NC(=O)[C@H](Cc3ccc(OCC(=O)O)cc3)NC(=O)[C@H](CN)NC(=O)CSC[C@@H](C(=O)N[C@H](CC(=O)NCCCCCCCCCCC(=O)O)C(N)=O)NC(=O)[C@H]([C@@H](C)O)NC(=O)[C@H](C(C)C)NC(=O)[C@H](CC3CCCCC3)NC(=O)[C@H](CCN)NC(=O)[C@@H](CC(C)C)NC(=O)[C@H](CCCN)NC(=O)[C@H](Cc3ccc(O)cc3)NC(=O)[C@H](Cc3ccc(-c4ccccc4)cc3)NC(=O)[C@H](C(C)C)NC2=O)c1 [Compound 2735] ({CH2CO}-[Dap]Y(Carboxymethyl)D[Phe(3-Me)]V[Bip]Y[Orn][dL][Dab][Cha]VTC[dD](Aun)-NH2; thioether N-14) | 72.4 nM |
| Cc1cccc(C[C@@H]2NC(=O)[C@H](CC(=O)O)NC(=O)[C@H](Cc3ccc(OCC(=O)O)cc3)NC(=O)[C@H](CN)NC(=O)CSC[C@@H](C(=O)N[C@H](CC(=O)NCCCCCCCCCCC(=O)O)C(N)=O)NC(=O)[C@H]([C@@H](C)O)NC(=O)[C@H](C(C)C)NC(=O)[C@H](CC3CCCCC3)NC(=O)[C@H](CCN)NC(=O)[C@@H](CC(C)C)NC(=O)[C@H](CCCN)NC(=O)[C@H](Cc3ccc(O)cc3)NC(=O)[C@H](Cc3ccc(-c4ccccc4)cc3)NC(=O)[C@H](Cc3ccc(O)cc3)NC2=O)c1 [Compound 2736] ({CH2CO}-[Dap]Y(Carboxymethyl)D[Phe(3-Me)]Y[Bip]Y[Orn][dL][Dab][Cha]VTC[dD](Aun)-NH2; thioether N-14) | 114 nM |
| Cc1cccc(C[C@@H]2NC(=O)[C@H](CC(=O)O)NC(=O)[C@H](Cc3ccc(OCC(=O)O)cc3)NC(=O)[C@H](CN)NC(=O)CSC[C@@H](C(=O)N[C@@H](CCN)C(=O)NCCCCCCCCCCC(=O)O)NC(=O)[C@H]([C@@H](C)O)NC(=O)[C@H](C(C)C)NC(=O)[C@H](CC3CCCCC3)NC(=O)[C@H](CCN)NC(=O)[C@@H](CC(C)C)NC(=O)[C@H](CCCN)NC(=O)[C@H](Cc3ccc(O)cc3)NC(=O)[C@H](Cc3ccc(-c4ccccc4)cc3)NC(=O)[C@H](CC(C)C)NC2=O)c1 [Compound 2737] ({CH2CO}-[Dap]Y(Carboxymethyl)D[Phe(3-Me)]L[Bip]Y[Orn][dL][Dab][Cha]VTC[Dab][Aun]-OH; thioether N-14) | 28.8 nM |
| Cc1cccc(C[C@@H]2NC(=O)[C@H](CC(=O)O)NC(=O)[C@H](Cc3ccc(O)cc3)NC(=O)[C@H](CC(N)=O)NC(=O)CSC[C@@H](C(=O)N[C@@H](CCN)C(=O)NCCCCCCCCCCC(=O)O)NC(=O)[C@H]([C@@H](C)O)NC(=O)[C@H](C(C)C)NC(=O)[C@H](CC3CCCCC3)NC(=O)[C@H](CCN)NC(=O)[C@@H](CC(C)C)NC(=O)[C@H](CCCN)NC(=O)[C@H](Cc3ccc(O)cc3)NC(=O)[C@H](Cc3ccc(-c4ccccc4)cc3)NC(=O)[C@H](C(C)C)NC2=O)c1 [Compound 2738] ({CH2CO}-NYD[Phe(3-Me)]V[Bip]Y[Orn][dL][Dab][Cha]VTC[Dab][Aun]-OH; thioether N-14) | 63.2 nM |
| Cc1cccc(C[C@@H]2NC(=O)[C@H](CC(=O)O)NC(=O)[C@H](Cc3ccc(OCC(=O)O)cc3)NC(=O)[C@H](CC(N)=O)NC(=O)CSC[C@@H](C(=O)N[C@@H](CCN)C(=O)NCCCCCCCCCCC(=O)O)NC(=O)[C@H]([C@@H](C)O)NC(=O)[C@H](C(C)C)NC(=O)[C@H](CC3CCCCC3)NC(=O)[C@H](CCN)NC(=O)[C@@H](CC(C)C)NC(=O)[C@H](CCCN)NC(=O)[C@H](Cc3ccc(O)cc3)NC(=O)[C@H](Cc3ccc(-c4ccccc4)cc3)NC(=O)[C@H](C(C)C)NC2=O)c1 [Compound 2739] ({CH2CO}-NY(Carboxymethyl)D[Phe(3-Me)]V[Bip]Y[Orn][dL][Dab][Cha]VTC[Dab][Aun]-OH; thioether N-14) | 18.9 nM |
| Cc1cccc(C[C@@H]2NC(=O)[C@H](CC(=O)O)NC(=O)[C@H](Cc3cccnc3)NC(=O)[C@H](CC(N)=O)NC(=O)CSC[C@@H](C(=O)N[C@@H](CCN)C(=O)NCCCCCCCCCCC(=O)O)NC(=O)[C@H]([C@@H](C)O)NC(=O)[C@H](C(C)C)NC(=O)[C@H](CC3CCCCC3)NC(=O)[C@H](CCN)NC(=O)[C@@H](CC(C)C)NC(=O)[C@H](CCCN)NC(=O)[C@H](Cc3ccc(O)cc3)NC(=O)[C@H](Cc3ccc(-c4ccccc4)cc3)NC(=O)[C@H](C(C)C)NC2=O)c1 [Compound 2740] ({CH2CO}-N[3Pal]D[Phe(3-Me)]V[Bip]Y[Orn][dL][Dab][Cha]VTC[Dab][Aun]-OH; thioether N-14) | 19.7 nM |
| CC(C)C[C@H]1NC(=O)[C@H](CCCN)NC(=O)[C@H](Cc2ccc(O)cc2)NC(=O)[C@H](Cc2ccc(-c3ccccc3)cc2)NC(=O)[C@H](C(C)C)NC(=O)[C@H](Cc2c[nH]c3ccccc23)NC(=O)[C@H](CC(=O)O)NC(=O)[C@H](Cc2ccc(OCC(=O)O)cc2)NC(=O)[C@H](Cc2ccncc2)NC(=O)CSC[C@@H](C(=O)N[C@@H](CCN)C(=O)NCCCCCCCCCCC(=O)O)NC(=O)[C@H]([C@@H](C)O)NC(=O)[C@H](C(C)C)NC(=O)[C@H](CC2CCCCC2)NC(=O)[C@H](CCN)NC1=O [Compound 2741] ({CH2CO}-[4Pal]Y(Carboxymethyl)DWV[Bip]Y[Orn][dL][Dab][Cha]VTC[Dab][Aun]-OH; thioether N-14) | 54.3 nM |
| CC(C)C[C@@H]1NC(=O)[C@H](CCN)NC(=O)[C@@H](CC(C)C)NC(=O)[C@H](CCCN)NC(=O)[C@H](Cc2ccc(O)cc2)NC(=O)[C@H](Cc2ccc(-c3ccccc3)cc2)NC(=O)[C@H](C(C)C)NC(=O)[C@H](Cc2c[nH]c3ccccc23)NC(=O)[C@H](CC(=O)O)NC(=O)[C@H](Cc2ccc(OCC(=O)O)cc2)NC(=O)[C@H](Cc2ccncc2)NC(=O)CSC[C@@H](C(=O)N[C@@H](CCN)C(=O)NCCCCCCCCCCC(=O)O)NC(=O)[C@H]([C@@H](C)O)NC(=O)[C@H](C(C)C)NC1=O [Compound 2742] ({CH2CO}-[4Pal]Y(Carboxymethyl)DWV[Bip]Y[Orn][dL][Dab]LVTC[Dab][Aun]-OH; thioether N-14) | 133 nM |
| CC(C)C[C@H]1NC(=O)[C@H](CCCN)NC(=O)[C@H](Cc2ccc(O)cc2)NC(=O)[C@H](Cc2ccc(-c3ccccc3)cc2)NC(=O)[C@H](C(C)C)NC(=O)[C@H](Cc2c[nH]c3ccccc23)NC(=O)[C@H](CC(=O)O)NC(=O)[C@H](Cc2ccc(O)cc2)NC(=O)[C@H](Cc2ccncc2)NC(=O)CSC[C@@H](C(=O)N[C@@H](CCN)C(=O)NCCCCCCCCCCC(=O)O)NC(=O)[C@H]([C@@H](C)O)NC(=O)[C@H](C(C)C)NC(=O)[C@H](CC2CCCCC2)NC(=O)[C@H](CCN)NC1=O [Compound 2743] ({CH2CO}-[4Pal]YDWV[Bip]Y[Orn][dL][Dab][Cha]VTC[Dab][Aun]-OH; thioether N-14) | 97.6 nM |
| Cc1cccc(C[C@@H]2NC(=O)[C@H](CC(=O)O)NC(=O)[C@H](Cc3ccc(OCC(=O)O)cc3)NC(=O)[C@H](Cc3ccncc3)NC(=O)CSC[C@@H](C(=O)N[C@@H](CCN)C(=O)NCCCCCCCCCCC(=O)O)NC(=O)[C@H]([C@@H](C)O)NC(=O)[C@H](C(C)C)NC(=O)[C@H](CC3CCCCC3)NC(=O)[C@H](CCN)NC(=O)[C@@H](CC(C)C)NC(=O)[C@H](CCCN)NC(=O)[C@H](Cc3ccc(O)cc3)NC(=O)[C@H](Cc3ccc(-c4ccccc4)cc3)NC(=O)[C@H](C(C)C)NC2=O)c1 [Compound 2744] ({CH2CO}-[4Pal]Y(Carboxymethyl)D[Phe(3-Me)]V[Bip]Y[Orn][dL][Dab][Cha]VTC[Dab][Aun]-OH; thioether N-14) | 72.5 nM |
| Cc1cccc(C[C@@H]2NC(=O)[C@H](CC(=O)O)NC(=O)[C@H](Cc3ccc(O)cc3)NC(=O)[C@H](Cc3ccncc3)NC(=O)CSC[C@@H](C(=O)N[C@@H](CCN)C(=O)NCCCCCCCCCCC(=O)O)NC(=O)[C@H]([C@@H](C)O)NC(=O)[C@H](C(C)C)NC(=O)[C@H](CC3CCCCC3)NC(=O)[C@H](CCN)NC(=O)[C@@H](CC(C)C)NC(=O)[C@H](CCCN)NC(=O)[C@H](Cc3ccc(O)cc3)NC(=O)[C@H](Cc3ccc(-c4ccccc4)cc3)NC(=O)[C@H](C(C)C)NC2=O)c1 [Compound 2745] ({CH2CO}-[4Pal]YD[Phe(3-Me)]V[Bip]Y[Orn][dL][Dab][Cha]VTC[Dab][Aun]-OH; thioether N-14) | 262 nM |
| CC(C)C[C@H]1NC(=O)[C@H](CCCN)NC(=O)[C@H](Cc2ccc(O)cc2)NC(=O)[C@H](Cc2ccc(-c3ccccc3)cc2)NC(=O)[C@H](C(C)C)NC(=O)[C@H](Cc2c[nH]c3ccccc23)NC(=O)[C@H](CC(=O)O)NC(=O)[C@H](Cc2ccncc2)NC(=O)[C@H](Cc2ccc(OCC(=O)O)cc2)NC(=O)CSC[C@@H](C(=O)N[C@@H](CCN)C(=O)NCCCCCCCCCCC(=O)O)NC(=O)[C@H]([C@@H](C)O)NC(=O)[C@H](C(C)C)NC(=O)[C@H](CC2CCCCC2)NC(=O)[C@H](CCN)NC1=O [Compound 2746] ({CH2CO}-Y(Carboxymethyl)[4Pal]DWV[Bip]Y[Orn][dL][Dab][Cha]VTC[Dab][Aun]-OH; thioether N-14) | 48.6 nM |
| Cc1cccc(C[C@@H]2NC(=O)[C@H](CC(=O)O)NC(=O)[C@H](Cc3ccc(OCC(=O)O)cc3)NC(=O)[C@H](Cc3ccc(OCC(=O)O)cc3)NC(=O)CSC[C@@H](C(=O)N[C@@H](CCN)C(=O)NCCCCCCCCCCC(=O)O)NC(=O)[C@H]([C@@H](C)O)NC(=O)[C@H](C(C)C)NC(=O)[C@H](CC(C)C)NC(=O)[C@H](CCN)NC(=O)[C@@H](CC(C)C)NC(=O)[C@H](CCCN)NC(=O)[C@H](Cc3ccc(O)cc3)NC(=O)[C@H](Cc3ccc(-c4ccccc4)cc3)NC(=O)[C@H](CC(C)C)NC2=O)c1 [Compound 2747] ({CH2CO}-Y(Carboxymethyl)Y(Carboxymethyl)D[Phe(3-Me)]L[Bip]Y[Orn][dL][Dab]LVTC[Dab][Aun]-OH; thioether N-14) | 45 nM |
